# Data as given in patent US10597388B2, “Pyridazinone herbicides” (FMC CORPORATION, priority 2014, dated 2020).
# Experiments:
# Assay in all cases: Test E greenhouse herbicide test, pre- and postemergence
# Type in all cases: in vivo
# [1] = tested on: velvetleaf (Abutilon theophrasti); settings: Preemergence
# Outline: (§1)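 Pre- and postemergence sprays, same solvent–surfactant formulation. Substrate: silt loam (pre), peat-based mix (post, 1–4 leaf, 2–18 cm). Readout: visual control rating 0–100 against controls at 14–21 d.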
# [2] = tested on: pigweed, palmer (palmer pigweed, Amaranthus palmeri)
# Outline: as §1
# [3] = tested on: johnsongrass (Sorghum halepense); settings: Preemergence
# Outline: as §1
# [4] = tested on: arrowleaf sida (Sida rhombifolia)
# Outline: as §1
# [5] = tested on: momingglory (Ipomoea coccinea); settings: Preemergence
# Outline: as §1
# [6] = tested on: horseweed (Conyza canadensis); settings: Postemergence
# Outline: as §1
# [7] = tested on: field bindweed (Convolvulus arvensis)
# Outline: as §1
# [8] = tested on: goosegrass (Eleusine indica); settings: Preemergence
# Outline: as §1
# [9] = tested on: foxtail, giant (giant foxtail, Setaria faberii); settings: Preemergence
# Outline: as §1
# corn (Zea mays) = tested on: corn (Zea mays)
# Outline: as §1
# [10] = tested on: nightshade (eastern black nightshade, Solanum ptycanthum); settings: Preemergence
# Outline: as §1
# [11] = tested on: waterhemp (common waterhemp, Amaranthus rudis)
# Outline: as §1
# [12] = tested on: crabgrass, large (large crabgrass, Digitaria sanguinalis); settings: Preemergence
# Outline: as §1
# [13] = tested on: ragweed (common ragweed, Ambrosia elatior)
# Outline: as §1
# [14] = tested on: surinam grass (Brachiaria decumbens); settings: Preemergence
# Outline: as §1
# [15] = tested on: crabgrass, Brazilian (Brazilian crabgrass, Digitaria horizontalis)
# Outline: as §1
# [16] = tested on: dayflower (Virginia (VA) dayflower, Commelina virginica)
# Outline: as §1
# [17] = 62 g ai/ha, scale 0 to 100 (0 no effect, 100 complete control)
# [18] = 125 g ai/ha, scale 0 to 100 (0 no effect, 100 complete control)
# [19] = 31 g ai/ha, scale 0 to 100, 0 no effect, 100 complete control
# [20] = 250 g ai/ha, visual, scale 0 no effect to 100 complete control
# [21] = 62 g ai/ha, Postemergence, scale 0 to 100 (0 no effect, 100 complete control)
# [22] = 62 g ai/ha, Preemergence, scale 0 to 100 (0 no effect, 100 complete control)
# [23] = 125 g ai/ha, Postemergence, scale 0 to 100 (0 no effect, 100 complete control)
# [24] = 125 g ai/ha, Preemergence, scale 0 to 100 (0 no effect, 100 complete control)
# [25] = 250 g ai/ha, Postemergence, scale 0 to 100 (0 no effect, 100 complete control)
# [26] = Postemergence, 31 g ai/ha, visual, scale 0 no effect to 100 complete control
# [27] = Preemergence, 31 g ai/ha, scale 0 to 100, 0 no effect, 100 complete control
# [28] = Preemergence, 250 g ai/ha, visual, scale 0 no effect to 100 complete control
compound,measurement,setting,value
CCOC(=O)Oc1c(C)nn(C)c(=O)c1-c1c(C)sc2c(C)cc(C)cc12 [Compound 83],"Plant response rating, Velvetleaf",[1]; [17],35
same,"Plant response rating, Velvetleaf",[1]; [18],70
same,"Plant response rating, Velvetleaf",[1]; [19],0
same,"Plant response rating, Velvetleaf",[1]; [20],100
same,"Plant response rating, Pigweed, Palmer",[2]; [21],40
same,"Plant response rating, Pigweed, Palmer",[2]; [22],20
same,"Plant response rating, Pigweed, Palmer",[2]; [23],50
same,"Plant response rating, Pigweed, Palmer",[2]; [24],50
same,"Plant response rating, Pigweed, Palmer",[2]; [25],60
same,"Plant response rating, Pigweed, Palmer",[2]; [26],40
same,"Plant response rating, Pigweed, Palmer",[2]; [27],0
same,"Plant response rating, Pigweed, Palmer",[2]; [28],80
same,"Plant response rating, Johnsongrass",[3]; [17],0
same,"Plant response rating, Johnsongrass",[3]; [18],0
same,"Plant response rating, Johnsongrass",[3]; [19],0
same,"Plant response rating, Johnsongrass",[3]; [20],20
same,"Plant response rating, Arrowleaf Sida",[4]; [21],50
same,"Plant response rating, Arrowleaf Sida",[4]; [22],25
same,"Plant response rating, Arrowleaf Sida",[4]; [23],60
same,"Plant response rating, Arrowleaf Sida",[4]; [24],35
same,"Plant response rating, Arrowleaf Sida",[4]; [25],60
same,"Plant response rating, Arrowleaf Sida",[4]; [26],50
same,"Plant response rating, Arrowleaf Sida",[4]; [27],15
same,"Plant response rating, Arrowleaf Sida",[4]; [28],65
same,"Plant response rating, Morningglory",[5]; [17],20
same,"Plant response rating, Morningglory",[5]; [18],95
same,"Plant response rating, Morningglory",[5]; [19],25
same,"Plant response rating, Morningglory",[5]; [20],100
same,"Plant response rating, Horseweed",[6]; [17],80
same,"Plant response rating, Horseweed",[6]; [18],85
same,"Plant response rating, Horseweed","[6]; 250 g ai/ha, scale 0 to 100 (0 no effect, 100 complete control)",90
same,"Plant response rating, Horseweed","[6]; 31 g ai/ha, visual, scale 0 no effect to 100 complete control",75
same,"Plant response rating, Field Bindweed",[7]; [21],70
same,"Plant response rating, Field Bindweed",[7]; [22],5
same,"Plant response rating, Field Bindweed",[7]; [23],70
same,"Plant response rating, Field Bindweed",[7]; [24],35
same,"Plant response rating, Field Bindweed",[7]; [25],75
same,"Plant response rating, Field Bindweed",[7]; [26],60
same,"Plant response rating, Field Bindweed",[7]; [27],0
same,"Plant response rating, Field Bindweed",[7]; [28],100
same,"Plant response rating, Goosegrass",[8]; [17],0
same,"Plant response rating, Goosegrass",[8]; [18],5
same,"Plant response rating, Goosegrass",[8]; [19],0
same,"Plant response rating, Goosegrass",[8]; [20],25
same,"Plant response rating, Foxtail, Giant",[9]; [17],98
same,"Plant response rating, Foxtail, Giant",[9]; [18],100
same,"Plant response rating, Foxtail, Giant",[9]; [19],95
same,"Plant response rating, Foxtail, Giant",[9]; [20],100
same,"Plant response rating, Corn",corn (Zea mays); [21],0
same,"Plant response rating, Corn",corn (Zea mays); [22],0
same,"Plant response rating, Corn",corn (Zea mays); [23],0
same,"Plant response rating, Corn",corn (Zea mays); [24],0
same,"Plant response rating, Corn",corn (Zea mays); [25],10
same,"Plant response rating, Corn",corn (Zea mays); [26],0
same,"Plant response rating, Corn",corn (Zea mays); [27],0
same,"Plant response rating, Corn",corn (Zea mays); [28],0
same,"Plant response rating, Nightshade",[10]; [17],50
same,"Plant response rating, Nightshade",[10]; [18],100
same,"Plant response rating, Nightshade",[10]; [19],35
same,"Plant response rating, Nightshade",[10]; [20],100
same,"Plant response rating, Waterhemp",[11]; [22],65
same,"Plant response rating, Waterhemp",[11]; [23],40
same,"Plant response rating, Waterhemp",[11]; [24],75
same,"Plant response rating, Waterhemp",[11]; [25],60
same,"Plant response rating, Waterhemp",[11]; [26],40
same,"Plant response rating, Waterhemp",[11]; [27],65
same,"Plant response rating, Waterhemp",[11]; [28],75
same,"Plant response rating, Crabgrass, Large",[12]; [17],5
same,"Plant response rating, Crabgrass, Large",[12]; [18],40
same,"Plant response rating, Crabgrass, Large",[12]; [19],0
same,"Plant response rating, Crabgrass, Large",[12]; [20],20
same,"Plant response rating, Ragweed",[13]; [21],50
same,"Plant response rating, Ragweed",[13]; [22],75
same,"Plant response rating, Ragweed",[13]; [23],70
same,"Plant response rating, Ragweed",[13]; [24],95
same,"Plant response rating, Ragweed",[13]; [25],75
same,"Plant response rating, Ragweed",[13]; [26],60
same,"Plant response rating, Ragweed",[13]; [27],70
same,"Plant response rating, Ragweed",[13]; [28],98
same,"Plant response rating, Surinam Grass",[14]; [17],60
same,"Plant response rating, Surinam Grass",[14]; [18],85
same,"Plant response rating, Surinam Grass",[14]; [19],65
same,"Plant response rating, Surinam Grass",[14]; [20],95
same,"Plant response rating, Crabgrass, Brazil",[15]; [21],40
same,"Plant response rating, Crabgrass, Brazil",[15]; [22],10
same,"Plant response rating, Crabgrass, Brazil",[15]; [23],50
same,"Plant response rating, Crabgrass, Brazil",[15]; [24],50
same,"Plant response rating, Crabgrass, Brazil",[15]; [25],50
same,"Plant response rating, Crabgrass, Brazil",[15]; [26],30
same,"Plant response rating, Crabgrass, Brazil",[15]; [27],0
same,"Plant response rating, Crabgrass, Brazil",[15]; [28],80
same,"Plant response rating, Dayflower, VA",[16]; [21],60
same,"Plant response rating, Dayflower, VA",[16]; [22],10
same,"Plant response rating, Dayflower, VA",[16]; [23],75
same,"Plant response rating, Dayflower, VA",[16]; [24],25
same,"Plant response rating, Dayflower, VA",[16]; [25],70
same,"Plant response rating, Dayflower, VA",[16]; [26],50
same,"Plant response rating, Dayflower, VA",[16]; [27],0
same,"Plant response rating, Dayflower, VA",[16]; [28],65
